Like-named read-outs stand apart in the source and are kept apart here.
What was measured:
SARS-CoV-2 = test: microbe, parasite or virus in culture; assay type: cell-based; conditions: Severe acute respiratory syndrome coronavirus 2; read-out: Antiviral EC50 Data
SARS-CoV-2 3CLpro = SARS-CoV-2 3CLpro (Severe acute respiratory syndrome coronavirus 2 (2019-nCoV) (SARS-CoV-2), UniProt P0DTD1); test: SARS-CoV-2 3CLpro enzyme inhibition assay; assay type: biochemical
[1] = SARS-CoV-2 3CLpro, 10 minutes pre-incubation of enzyme with compound, read-out: Enzyme IC50 Data

Row | Structure (SMILES) | EC50 (SARS-CoV-2) [µM] | IC50 (SARS-CoV-2 3CLpro) [µM] | IC50 (SARS-CoV-2 3CLpro; [1]) [µM] | IC50 (SARS-CoV-2 3CLpro; read-out: Enzyme IC50 Data, SARS-CoV-2 3CLpro, 10 minutes pre-incubation of enzyme with compound) [µM]
1 | CCCO[C@@H]1C[C@@H](C(=O)N[C@@H](C[C@@H]2CCNC2=O)C(=O)c2nc3ccccc3s2)N(C(=O)[C@@H](NC(=O)NC(C)(C)C)C(C)(C)C)C1 | 50 to 100 | 0.1 to 5 | – | –
2 | CCCO[C@@H]1C[C@@H](C(=O)N[C@@H](CC2CCNC2=O)C(=O)c2nc3ccccc3s2)N(C(=O)C(NC(=O)NC(C)(C)C)C(C)C)C1 (some centres unmarked) | 50 to 100 | 0.1 to 5 | – | –
3 | CCCN(CCC)[C@@H]1C[C@@H](C(=O)N[C@@H](C[C@H]2CCNC2=O)C(=O)c2nc3ccccc3s2)N(C(=O)[C@@H](NC(=O)OC(C)(C)C)C(C)(C)C)C1 | 5 to 50 | 0.1 to 5 | – | –
4 | CCCC(=O)N[C@@H]1C[C@@H](C(=O)N[C@@H](C[C@H]2CCNC2=O)C(=O)c2nc3ccccc3s2)N(C(=O)[C@@H](NC(=O)OC(C)(C)C)C(C)(C)C)C1 | > 100 | 0.1 to 5 | – | –
5 | CC(C)(C)NC(=O)N[C@H](C(=O)N1C[C@H]2[C@@H]([C@H]1C(=O)N[C@@H](C[C@@H]1CCNC1=O)C(=O)c1nc3ccccc3s1)C2(C)C)C(C)(C)C | 5 to 50 | 50 to 100 | – | –
6 | CC(C)(C)NC(=O)N[C@H](C(=O)N1C[C@H]2[C@@H]([C@H]1C(=O)N[C@@H](C[C@@H]1CCNC1=O)C(=O)C(=O)NCc1ccccc1)C2(C)C)C(C)(C)C | > 100 | 50 to 100 | – | –
7 | CC(C)(C)NC(=O)N[C@H](C(=O)N1C[C@H]2[C@@H]([C@H]1C(=O)N[C@@H](C[C@@H]1CCNC1=O)C(=O)c1nc(-c3ccccc3)cs1)C2(C)C)C(C)(C)C | 5 to 50 | 5 to 50 | – | –
8 | CC(C)(C)NC(=O)N[C@H](C(=O)N1C[C@H]2[C@@H]([C@H]1C(=O)N[C@@H](C[C@@H]1CCNC1=O)C(=O)C(N)=O)C2(C)C)C(C)(C)C | > 100 | – | – | –
9 | CCCO[C@@H]1C[C@@H](C(=O)N[C@@H](C[C@@H]2CCNC2=O)C(=O)c2nc(-c3ccccc3)cs2)N(C(=O)[C@@H](NC(=O)NC(C)(C)C)C(C)(C)C)C1 | 5 to 50 | – | > 100 | –
10 | CCCN(CCC)[C@@H]1C[C@@H](C(=O)N[C@@H](C[C@H]2CCNC2=O)C(=O)c2nc3ccccc3s2)N(C(=O)[C@@H](NC(=O)NC(C)(C)C)C(C)(C)C)C1 | 5 to 50 | – | > 100 | –
11 | CCCC(=O)N[C@@H]1C[C@@H](C(=O)N[C@@H](C[C@H]2CCNC2=O)C(=O)c2nc3ccccc3s2)N(C(=O)[C@@H](NC(=O)NC(C)(C)C)C(C)(C)C)C1 | > 100 | 0.1 to 5 | – | –
12 | CC(C)(C)NC(=O)N[C@H](C(=O)N1C[C@H](N2CCCC2)C[C@H]1C(=O)N[C@@H](C[C@H]1CCNC1=O)C(=O)c1nc2ccccc2s1)C(C)(C)C | > 100 | 5 to 50 | – | –
13 | CC(C)(C)NC(=O)N[C@H](C(=O)N1C[C@H](N2CCOCC2)C[C@H]1C(=O)N[C@@H](C[C@H]1CCNC1=O)C(=O)c1nc2ccccc2s1)C(C)(C)C | – | – | 0.1 to 5 | –
14 | CCCN(CCC)[C@@H]1C[C@@H](C(=O)N[C@@H](C[C@H]2CCNC2=O)C(=O)c2nc(-c3ccccc3)cs2)N(C(=O)[C@@H](NC(=O)NC(C)(C)C)C(C)(C)C)C1 | – | – | 0.1 to 5 | –
15 | CC(C)(C)[C@H](NC(=O)NCc1ccncc1)C(=O)N1C[C@H]2[C@@H]([C@H]1C(=O)N[C@@H](C[C@@H]1CCNC1=O)C(=O)c1nc(-c3ccccc3)cs1)C2(C)C | – | – | 0.1 to 5 | –
16 | CN(C)[C@@H]1C[C@@H](C(=O)N[C@@H](C[C@@H]2CCNC2=O)C(=O)c2nc(-c3ccccc3)cs2)N(C(=O)[C@@H](NC(=O)NC(C)(C)C)C(C)(C)C)C1 | – | – | 0.1 to 5 | –
17 | CCN(CC)[C@@H]1C[C@@H](C(=O)N[C@@H](C[C@@H]2CCNC2=O)C(=O)c2nc(-c3ccccc3)cs2)N(C(=O)[C@@H](NC(=O)NC(C)(C)C)C(C)(C)C)C1 | – | – | 0.1 to 5 | –
18 | CC(C)(C)NC(=O)N[C@H](C(=O)N1C[C@H]2[C@@H]([C@H]1C(=O)N[C@@H](C[C@@H]1CCNC1=O)C(=O)c1nc(-c3ccccc3)co1)C2(C)C)C(C)(C)C | – | – | 50 to 100 | –
19 | CC(=O)OC(C#N)[C@H](CC1CCCNC1=O)NC(=O)[C@@H]1[C@@H]2[C@H](CN1C(=O)C(NC(=O)NC(C)(C)C)C(C)(C)C)C2(C)C (some centres unmarked) | > 100 | – | – | –
20 | CCCN(CCC)[C@@H]1C[C@@H](C(=O)NC(C#N)C[C@@H]2CCNC2=O)N(C(=O)[C@@H](NC(=O)C(F)(F)F)C(C)(C)C)C1 (some centres unmarked) | > 100 | > 100 | – | –
21 | CCCN(CCC)[C@@H]1C[C@@H](C(=O)NC(C#N)C[C@@H]2CCNC2=O)N(C(=O)[C@@H](NC(=O)OC(C)(C)C)C(C)(C)C)C1 (some centres unmarked) | 5 to 50 | – | > 100 | –
22 | CCCO[C@@H]1C[C@@H](C(=O)NC(C#N)C[C@@H]2CCNC2=O)N(C(=O)[C@@H](NC(=O)NC(C)(C)C)C(C)(C)C)C1 (some centres unmarked) | > 100 | 50 to 100 | – | –
23 | CC(C)(C)NC(=O)N[C@H](C(=O)N1C[C@H]2[C@@H]([C@H]1C(=O)NC(C#N)C[C@@H]1CCNC1=O)C2(C)C)C(C)(C)C (some centres unmarked) | > 100 | – | – | –
24 | CC(C)(C)[C@H](NC(=O)c1ccccc1)C(=O)N1C[C@H]2[C@@H]([C@H]1C(=O)N[C@H](C#N)C[C@@H]1CCNC1=O)C2(C)C | 50 to 100 | – | – | –
25 | CCCO[C@@H]1C[C@@H](C(=O)N[C@@H](C[C@@H]2CCNC2=O)C(=O)c2nc3ccccc3s2)N(C(=O)[C@@H](NC(=O)OC(C)(C)C)C(C)(C)C)C1 [drawing 99] | 0.1 to 5 | 0.1 to 5 | – | –
26 | CCCO[C@@H]1C[C@@H](C(=O)N[C@@H](C[C@@H]2CCNC2=O)C(=O)c2nc3ccccc3s2)N(C(=O)[C@@H](NC(=O)OC(C)(C)C)C(C)(C)C)C1 [drawing 100] | – | – | – | 0.1 to 5

From patent publication US20240043417A1, “COMPOUNDS FOR THE TREATMENT OF SARS” (Purdue Research Foundation, priority 2020, published 2024)
